In the NIST ThermoML archive (doi:10.1016/j.fluid.2017.06.022):
± gives the expanded uncertainty stated by the source.

Experiment: xn = mol fraction of the nth substance listed
Conditions: Liquid, Bellows volumetry

C=CC [propene] + Cc1ccccc1
Conditions	mass density [kg/m3]
324.6 K, 51500 kPa, x1 = 0.7612	648.4 ± 16
324.6 K, 58400 kPa, x1 = 0.7612	655.7 ± 16
324.6 K, 63100 kPa, x1 = 0.7612	660.3 ± 16
324.6 K, 67000 kPa, x1 = 0.7612	664.1 ± 16
324.8 K, 300 kPa, x1 = 0.1159	771 ± 18
324.8 K, 600 kPa, x1 = 0.1159	771.6 ± 18
324.8 K, 1100 kPa, x1 = 0.1159	772.2 ± 18
324.8 K, 1600 kPa, x1 = 0.1159	772.8 ± 19
324.8 K, 2000 kPa, x1 = 0.1159	773.4 ± 19
324.8 K, 2500 kPa, x1 = 0.1159	774 ± 19
324.8 K, 3300 kPa, x1 = 0.1159	774.6 ± 19
324.8 K, 5000 kPa, x1 = 0.1159	776.3 ± 19
324.8 K, 7000 kPa, x1 = 0.1159	778.7 ± 19
324.8 K, 10200 kPa, x1 = 0.1159	781.7 ± 19
324.8 K, 13500 kPa, x1 = 0.1159	784.7 ± 19
324.8 K, 16900 kPa, x1 = 0.1159	787.7 ± 19
324.8 K, 20400 kPa, x1 = 0.1159	791.4 ± 19
324.8 K, 23600 kPa, x1 = 0.1159	793.9 ± 19
324.8 K, 31300 kPa, x1 = 0.1159	800.7 ± 19
324.8 K, 37800 kPa, x1 = 0.1159	805.8 ± 19
374.3 K, 3700 kPa, x1 = 0.7612	493.5 ± 12
374.3 K, 3800 kPa, x1 = 0.7612	494.1 ± 12
374.3 K, 5300 kPa, x1 = 0.7612	503.1 ± 12
374.3 K, 6900 kPa, x1 = 0.7612	511.6 ± 12
374.3 K, 8400 kPa, x1 = 0.7612	518.3 ± 12
374.3 K, 10400 kPa, x1 = 0.7612	526 ± 13
374.3 K, 17200 kPa, x1 = 0.7612	547.4 ± 13
374.3 K, 23900 kPa, x1 = 0.7612	562.2 ± 14
374.3 K, 30800 kPa, x1 = 0.7612	574.7 ± 14
374.3 K, 37700 kPa, x1 = 0.7612	586.8 ± 14
374.3 K, 44200 kPa, x1 = 0.7612	596.6 ± 14
375.3 K, 700 kPa, x1 = 0.1159	723.9 ± 17
375.3 K, 900 kPa, x1 = 0.1159	724.4 ± 17
375.3 K, 1400 kPa, x1 = 0.1159	725.5 ± 17
375.3 K, 2000 kPa, x1 = 0.1159	726.5 ± 18
375.3 K, 2500 kPa, x1 = 0.1159	727.6 ± 18
375.3 K, 3400 kPa, x1 = 0.1159	728.6 ± 18
375.3 K, 5200 kPa, x1 = 0.1159	731.2 ± 18
375.3 K, 6900 kPa, x1 = 0.1159	733.8 ± 18
375.3 K, 10100 kPa, x1 = 0.1159	737.6 ± 18
375.3 K, 17200 kPa, x1 = 0.1159	746.2 ± 18
375.3 K, 23700 kPa, x1 = 0.1159	753.4 ± 18
375.3 K, 30800 kPa, x1 = 0.1159	760.7 ± 18
375.3 K, 37600 kPa, x1 = 0.1159	767 ± 18
375.4 K, 2600 kPa, x1 = 0.53	588.6 ± 14
375.4 K, 2900 kPa, x1 = 0.53	589.8 ± 14
375.4 K, 4300 kPa, x1 = 0.53	593.6 ± 14
375.4 K, 6900 kPa, x1 = 0.53	600.6 ± 14
375.4 K, 9200 kPa, x1 = 0.53	607.4 ± 15
375.4 K, 10500 kPa, x1 = 0.53	609.9 ± 15
375.4 K, 17900 kPa, x1 = 0.53	622.3 ± 15
375.4 K, 23800 kPa, x1 = 0.53	632 ± 15
375.4 K, 24100 kPa, x1 = 0.53	631.5 ± 15
375.4 K, 30900 kPa, x1 = 0.53	641.7 ± 15
375.4 K, 37900 kPa, x1 = 0.53	651.5 ± 16
375.4 K, 44800 kPa, x1 = 0.53	659.4 ± 16
375.4 K, 51200 kPa, x1 = 0.53	666.4 ± 16
375.4 K, 58800 kPa, x1 = 0.53	674.3 ± 16
375.4 K, 63200 kPa, x1 = 0.53	678.1 ± 16
375.4 K, 67400 kPa, x1 = 0.53	682 ± 16
